Source: ChEMBL document CHEMBL1201861, “Genomics of Drug Sensitity in Cancer screening data, Wellcome Trust Sanger Institute”

How the values were obtained:
Experiment in all cases: cells
[1] = test system: EGI-1; type: functional, cell-based, Homo sapiens; settings: Homo sapiens, EGI-1;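 note: cell viability readout used to gauge growth inhibition of EGI-1 cells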
Description: SANGER: Inhibition of human EGI-1 cell growth in a cell viability assay.

[2] = test system: CAPAN-1; type: functional, cell-based, Homo sapiens; settings: Homo sapiens, CAPAN-1;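 note: growth suppression of CAPAN-1 cells, read out by a cell viability assay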
Description: SANGER: Inhibition of human CAPAN-1 cell growth in a cell viability assay.

[3] = test system: Daoy; type: functional, cell-based, Homo sapiens; settings: Homo sapiens, Daoy;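 note: daoy cell growth inhibition, read out as cell viability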
Description: SANGER: Inhibition of human Daoy cell growth in a cell viability assay.

[4] = test system: M14; type: functional, cell-based, Homo sapiens; settings: Homo sapiens, M14;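 note: growth inhibition of M14 cells, read out with a cell viability assay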
Description: SANGER: Inhibition of human M14 cell growth in a cell viability assay.

[5] = test system: BPH-1; type: functional, cell-based, Homo sapiens; settings: Homo sapiens, BPH-1;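 note: cell viability assay measuring growth inhibition of human BPH-1 cells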
Description: SANGER: Inhibition of human BPH-1 cell growth in a cell viability assay.

[6] = test system: TCC-SUP; type: functional, cell-based, Homo sapiens; settings: Homo sapiens, TCC-SUP;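 note: growth inhibition of TCC-SUP cells, read out with a cell viability assay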
Description: SANGER: Inhibition of human TCCSUP cell growth in a cell viability assay.

[7] = test system: OE33; type: functional, cell-based, Homo sapiens; settings: Homo sapiens, OE33;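 note: growth inhibition of human OE33 cells, measured by a cell viability assay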
Description: SANGER: Inhibition of human OE33 cell growth in a cell viability assay.

[8] = test system: HT55; type: functional, cell-based, Homo sapiens; settings: Homo sapiens, HT55;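 note: cell viability readout measuring growth inhibition of human HT55 cells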
Description: SANGER: Inhibition of human HT55 cell growth in a cell viability assay.

[9] = test system: OVCAR-3; type: functional, cell-based, Homo sapiens; settings: Homo sapiens, OVCAR-3;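 note: growth inhibition of human OVCAR-3 cells, determined by a cell viability assay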
Description: SANGER: Inhibition of human OVCAR-3 cell growth in a cell viability assay.

[10] = test system: CAKI-1; type: functional, cell-based, Homo sapiens; settings: Homo sapiens, CAKI-1;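 note: growth inhibition of CAKI-1 cells, measured by a cell viability assay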
Description: SANGER: Inhibition of human CAKI-1 cell growth in a cell viability assay.

[11] = test system: SK-MEL-30; type: functional, cell-based, Homo sapiens; settings: Homo sapiens, SK-MEL-30;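 note: growth inhibition of SK-MEL-30 cells, determined with a cell viability assay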
Description: SANGER: Inhibition of human SK-MEL-30 cell growth in a cell viability assay.

[12] = test system: Detroit 562; type: functional, cell-based, Homo sapiens; settings: Homo sapiens, Detroit 562;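 note: growth inhibition of human Detroit 562 cells, read out by a cell viability assay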
Description: SANGER: Inhibition of human Detroit562 cell growth in a cell viability assay.

[13] = test system: SK-HEP1; type: functional, cell-based, Homo sapiens, SK-HEP-1; settings: Homo sapiens, SK-HEP1;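 note: cell viability readout used to quantify reduction in proliferation of human SK-HEP-1 cells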
Description: SANGER: Inhibition of human SK-HEP-1 cell growth in a cell viability assay.

[14] = test system: BT-20; type: functional, cell-based, Homo sapiens; settings: Homo sapiens, BT-20;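 note: cell viability assay measuring suppression of growth in human BT-20 cells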
Description: SANGER: Inhibition of human BT-20 cell growth in a cell viability assay.

[15] = test system: HT-1376; type: functional, cell-based, Homo sapiens; settings: Homo sapiens, HT-1376
Description: SANGER: Inhibition of human HT-1376 cell growth in a cell viability assay.

[16] = test system: PC-14; type: functional, cell-based, Homo sapiens; settings: Homo sapiens, PC-14;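 note: cell viability assay measuring inhibition of PC-14 cell growth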
Description: SANGER: Inhibition of human PC-14 cell growth in a cell viability assay.

[17] = test system: KYSE-520 cell line; type: functional, cell-based, Homo sapiens; settings: Homo sapiens, KYSE-520;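 note: growth inhibition of human KYSE-520 cells, read out with a viability assay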
Description: SANGER: Inhibition of human KYSE-520 cell growth in a cell viability assay.

[18] = test system: RPMI-7951; type: functional, cell-based, Homo sapiens; settings: Homo sapiens, RPMI-7951
Description: SANGER: Inhibition of human RPMI-7951 cell growth in a cell viability assay.

[19] = test system: HT1197; type: functional, cell-based, Homo sapiens, HT-1197; settings: Homo sapiens, HT1197
Description: SANGER: Inhibition of human HT-1197 cell growth in a cell viability assay.

[20] = test system: OAW-42; type: functional, cell-based, Homo sapiens; settings: Homo sapiens, OAW-42;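 note: growth inhibition of OAW-42 cells, read out with a cell viability assay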
Description: SANGER: Inhibition of human OAW-42 cell growth in a cell viability assay.

[21] = test system: SK-LU-1; type: functional, cell-based, Homo sapiens; settings: Homo sapiens, SK-LU-1;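 note: cell viability assay measuring growth inhibition of human SK-LU-1 cells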
Description: SANGER: Inhibition of human SK-LU-1 cell growth in a cell viability assay.

[22] = test system: NCI-H1792; type: functional, cell-based, Homo sapiens; settings: Homo sapiens, NCI-H1792;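 note: growth inhibition of human NCI-H1792 cells, read out as cell viability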
Description: SANGER: Inhibition of human NCI-H1792 cell growth in a cell viability assay.

[23] = test system: D-566MG; type: functional, cell-based, Homo sapiens; settings: Homo sapiens, D-566MG
[24] = test system: COLO-792; type: functional, cell-based, Homo sapiens; settings: Homo sapiens, COLO-792
Description: SANGER: Inhibition of human COLO-792 cell growth in a cell viability assay.

[25] = test system: SW1088; type: functional, cell-based, Homo sapiens; settings: Homo sapiens, SW1088;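 note: growth inhibition of human SW1088 cells, read out by a cell viability assay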
Description: SANGER: Inhibition of human SW1088 cell growth in a cell viability assay.

[26] = test system: PFSK-1; type: functional, cell-based, Homo sapiens; settings: Homo sapiens, PFSK-1;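 note: cell viability assay measuring how strongly compounds suppress growth of human PFSK-1 cells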
Description: SANGER: Inhibition of human PFSK-1 cell growth in a cell viability assay.

[27] = test system: LCLC-103H cell line; type: functional, cell-based, Homo sapiens; settings: Homo sapiens, LCLC-103H
Description: SANGER: Inhibition of human LCLC-103H cell growth in a cell viability assay.

[28] = test system: KYSE-70 cell line; type: functional, cell-based, Homo sapiens; settings: Homo sapiens, KYSE-70;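 note: cell viability assay read-out, with IC50 expressing suppression of KYSE-70 cell growth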
Description: SANGER: Inhibition of human KYSE-70 cell growth in a cell viability assay.

[29] = test system: MEL-HO; type: functional, cell-based, Homo sapiens; settings: Homo sapiens, MEL-HO
Description: SANGER: Inhibition of human MEL-HO cell growth in a cell viability assay.

[30] = test system: AGS; type: functional, cell-based, Homo sapiens; settings: Homo sapiens, AGS;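 note: growth inhibition of AGS cells, determined with a cell viability assay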
Description: SANGER: Inhibition of human AGS cell growth in a cell viability assay.

[31] = test system: UACC-893; type: functional, cell-based, Homo sapiens; settings: Homo sapiens, UACC-893
Description: SANGER: Inhibition of human UACC-893 cell growth in a cell viability assay.

[32] = test system: SCC-9; type: functional, cell-based, Homo sapiens; settings: Homo sapiens, SCC-9;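 note: Read-out is a cell viability assay, with values giving inhibition of cell growth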
Description: SANGER: Inhibition of human SCC-9 cell growth in a cell viability assay.

[33] = test system: KYSE-150 cell line; type: functional, cell-based, Homo sapiens; settings: Homo sapiens, KYSE-150;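 note: growth inhibition of human KYSE-150 cells, read out with a cell viability assay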
Description: SANGER: Inhibition of human KYSE-150 cell growth in a cell viability assay.

[34] = test system: OVCAR-8; type: functional, cell-based, Homo sapiens; settings: Homo sapiens, OVCAR-8;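 note: growth inhibition of human OVCAR-8 cells, read out by a cell viability assay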
Description: SANGER: Inhibition of human OVCAR-8 cell growth in a cell viability assay.

[35] = test system: KOSC-2; type: functional, cell-based, Homo sapiens; settings: Homo sapiens, KOSC-2;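 note: growth inhibition of KOSC-2 cells, read out by a cell viability assay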
Description: SANGER: Inhibition of human KOSC-2 cell growth in a cell viability assay.

[36] = test system: NCI-H1573; type: functional, cell-based, Homo sapiens; settings: Homo sapiens, NCI-H1573;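 note: growth inhibition of NCI-H1573 cells, read out with a cell viability assay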
Description: SANGER: Inhibition of human NCI-H1573 cell growth in a cell viability assay.

[37] = test system: UO-31; type: functional, cell-based, Homo sapiens; settings: Homo sapiens, UO-31;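 note: cell viability assay measuring inhibition of cell growth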
Description: SANGER: Inhibition of human U031 cell growth in a cell viability assay.

[38] = test system: SW626; type: functional, cell-based, Homo sapiens; settings: Homo sapiens, SW626;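 note: growth inhibition of SW626 cells, measured with a cell viability assay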
Description: SANGER: Inhibition of human SW626 cell growth in a cell viability assay.

Structure (SMILES) | IC50 [1] | IC50 [2] | IC50 [3] | IC50 [4] | IC50 [5] | IC50 [6] | IC50 [7] | IC50 [8] | IC50 [9] | IC50 [10] | IC50 [11] | IC50 [12] | IC50 [13] | IC50 [14] | IC50 [15] | IC50 [16] | IC50 [17] | IC50 [18] | IC50 [19] | IC50 [20] | further results
Nc1cccc2c1CN(C1CCC(=O)NC1=O)C2=O (configuration not stated) [LENALIDOMIDE] | > 5000 nM | > 5000 nM | > 5000 nM | > 5000 nM | > 5000 nM | > 5000 nM | > 5000 nM | > 5000 nM | > 5000 nM | > 5000 nM | > 5000 nM | > 5000 nM | > 5000 nM | > 5000 nM | > 5000 nM | > 5000 nM | > 5000 nM | > 5000 nM | > 5000 nM | > 5000 nM | IC50 [21]: > 5000 nM; IC50 [22]: > 5000 nM; IC50 [23]: > 5000 nM; IC50 [24]: > 5000 nM; IC50 [25]: > 5000 nM; IC50 [26]: > 5000 nM; IC50 [27]: > 5000 nM; IC50 [28]: > 5000 nM; IC50 [29]: > 5000 nM; IC50 [30]: > 5000 nM; IC50 [31]: > 5000 nM; IC50 [32]: > 5000 nM; IC50 [33]: > 5000 nM; IC50 [34]: > 5000 nM; IC50 [35]: > 5000 nM; IC50 [36]: > 5000 nM; IC50 [37]: > 5000 nM; IC50 [38]: > 5000 nM
CC1(C)CNc2cc(NC(=O)c3cccnc3NCc3ccncc3)ccc21 [MOTESANIB] | > 2000 nM | > 2000 nM | > 2000 nM | > 2000 nM | > 2000 nM | > 2000 nM | > 2000 nM | > 2000 nM | > 2000 nM | > 2000 nM | > 2000 nM | > 2000 nM | > 2000 nM | > 2000 nM | > 2000 nM | > 2000 nM | > 2000 nM | > 2000 nM | > 2000 nM | > 2000 nM | IC50 [21]: > 2000 nM; IC50 [22]: > 2000 nM; IC50 [23]: > 2000 nM; IC50 [24]: > 2000 nM; IC50 [25]: > 2000 nM; IC50 [26]: > 2000 nM; IC50 [27]: > 2000 nM; IC50 [28]: > 2000 nM; IC50 [29]: > 2000 nM; IC50 [30]: > 2000 nM; IC50 [31]: > 2000 nM; IC50 [32]: > 2000 nM; IC50 [33]: > 2000 nM; IC50 [34]: > 2000 nM; IC50 [35]: > 2000 nM; IC50 [36]: > 2000 nM; IC50 [37]: > 2000 nM; IC50 [38]: > 2000 nM
Cc1cn(-c2cc(NC(=O)c3ccc(C)c(Nc4nccc(-c5cccnc5)n4)c3)cc(C(F)(F)F)c2)cn1 [NILOTINIB] | > 2000 nM | > 2000 nM | > 2000 nM | > 2000 nM | > 2000 nM | > 2000 nM | > 2000 nM | > 2000 nM | > 2000 nM | > 2000 nM | > 2000 nM | > 2000 nM | > 2000 nM | > 2000 nM | > 2000 nM | > 2000 nM | > 2000 nM | > 2000 nM | > 2000 nM | > 2000 nM | IC50 [21]: > 2000 nM; IC50 [22]: > 2000 nM; IC50 [23]: > 2000 nM; IC50 [24]: > 2000 nM; IC50 [25]: > 2000 nM; IC50 [26]: > 2000 nM; IC50 [27]: > 2000 nM; IC50 [28]: > 2000 nM; IC50 [29]: > 2000 nM; IC50 [30]: > 2000 nM; IC50 [31]: > 2000 nM; IC50 [32]: > 2000 nM; IC50 [33]: > 2000 nM; IC50 [34]: > 2000 nM; IC50 [35]: > 2000 nM; IC50 [36]: > 2000 nM; IC50 [37]: > 2000 nM; IC50 [38]: > 2000 nM
CCN(CC)CCCCNc1ncc2cc(-c3cc(OC)cc(OC)c3)c(NC(=O)NC(C)(C)C)nc2n1 [PD-173074] | > 2000 nM | > 2000 nM | > 2000 nM | > 2000 nM | > 2000 nM | > 2000 nM | > 2000 nM | > 2000 nM | > 2000 nM | > 2000 nM | > 2000 nM | > 2000 nM | > 2000 nM | > 2000 nM | > 2000 nM | > 2000 nM | > 2000 nM | > 2000 nM | > 2000 nM | > 2000 nM | IC50 [21]: > 2000 nM; IC50 [22]: > 2000 nM; IC50 [23]: > 2000 nM; IC50 [24]: > 2000 nM; IC50 [25]: > 2000 nM; IC50 [26]: > 2000 nM; IC50 [27]: > 2000 nM; IC50 [28]: > 2000 nM; IC50 [29]: > 2000 nM; IC50 [30]: > 2000 nM; IC50 [31]: > 2000 nM; IC50 [32]: > 2000 nM; IC50 [33]: > 2000 nM; IC50 [34]: > 2000 nM; IC50 [35]: > 2000 nM; IC50 [36]: > 2000 nM; IC50 [37]: > 2000 nM; IC50 [38]: > 2000 nM
